Data taken from patent US7030113B2, “Aminobenzimidazoles as selective melanin concentrating hormone receptor antagonists for the treatment of obesity and related disorders” (Schering Corporation, priority 2003, dated 2006).

target: T1, MCH receptor (Homo sapiens, UniProt Q99705); assay: MCH Receptor Binding Assay; details: membranes from CHO cells expressing the MCH receptor, [125I]-MCH, SPA; read-out: Activity Class (Ki)
T1 construct: expressed in transfected cells; host or cells: CHO cells
Procedure: MCH Receptor Binding Assay:
Membranes from CHO cells expressing the MCH receptor were prepared by lysing cells with 5 mM HEPES for 15 min at 4C. Cell lysates were centrifuged ([…], 15 min) and the pellet was resuspended in 5 mM HEPES. For each 96-well plate (Microlite, Dynex Technologies), 1 mg of cell membranes were incubated with 10 mg of wheat germ agglutinin SPA beads (Amersham) for 5 min at 4 C in a volume of 10 ml of binding buffer (25 mM HEPES, 10 mM MGCl2, 10 mM NaCl, 5 mM MnCl2, 0.1% BSA). The membrane/bead mixture was centrifuged (1500×g, 3.5 min), the supernatant was aspirated, and the pellet was resuspended in 10 ml binding buffer. The centrifugation, aspiration and resuspension were then repeated. The membrane/bead mixture (100 μl) was then added to 96-well plates containing 50 μl of 500 pM [^125I]-MCH (NEN) and […] of the appropriate concentration of compound (4× the desired final concentration). Nonspecific binding was determined by including 1 μM MCH in the binding reaction. The binding reaction was incubated at room temperature for 2 h. Plates were then analyzed in a TOPCOUNT microplate scintillation counter (Packard). Data was analyzed and Ki values were determined using GraphPad Prism.

T1 sequence (Q99705 whole entry): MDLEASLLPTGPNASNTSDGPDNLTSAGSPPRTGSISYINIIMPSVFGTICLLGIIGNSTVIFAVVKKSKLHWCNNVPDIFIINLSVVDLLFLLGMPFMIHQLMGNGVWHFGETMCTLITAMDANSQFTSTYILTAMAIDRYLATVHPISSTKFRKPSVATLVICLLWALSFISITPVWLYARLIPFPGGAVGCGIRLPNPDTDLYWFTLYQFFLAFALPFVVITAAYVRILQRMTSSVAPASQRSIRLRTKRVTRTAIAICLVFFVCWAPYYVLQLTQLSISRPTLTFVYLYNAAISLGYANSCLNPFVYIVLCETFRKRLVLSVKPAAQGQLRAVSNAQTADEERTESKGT

CN1CCN(CCCN(c2nc3cc(Cl)c(F)cc3[nH]2)[C@@H]2CC[C@]3(c4cccc(C#N)c4)C[C@@H]3C2)CC1 [Example 8c] and CN1CCN(CCCN(c2nc3cc(Cl)c(F)cc3[nH]2)[C@@H]2CC[C@]3(c4cccc(C#N)c4)C[C@H]23)CC1 [Example 30b] cannot be ordered by Ki: less than 10 nM for the first, less than 10 nM for the second.

CN1CCN(CCCN(c2nc3cc(Cl)c(Cl)cc3[nH]2)[C@@H]2CC[C@]3(c4cccc(C=O)c4)C[C@@H]3C2)CC1 [Example 9a] and CN1CCN(CCCN(c2nc3cc(F)c(F)cc3[nH]2)[C@@H]2CC[C@]3(c4cccc(C=O)c4)C[C@@H]3C2)CC1 [Example 9b] fall in the same range of Ki: 10 to 30 nM for the first, 10 to 30 nM for the second.

First: CN(C)Cc1cccc([C@]23CC[C@@H](N(CCCN4CCN(C)CC4)c4nc5cc(Cl)c(Cl)cc5[nH]4)C[C@H]2C3)c1 [Example 10a]
Second: CN(C)Cc1cccc([C@]23CC[C@@H](N(CCCN4CCN(C)CC4)c4nc5cc(F)c(F)cc5[nH]4)C[C@H]2C3)c1 [Example 10d]
The Ki of the first is lower: less than 10 nM for the first, greater than 100 nM for the second.

CN1CCN(CCCN(c2nc3cc(Cl)c(Cl)cc3[nH]2)[C@@H]2CC[C@]3(c4cccc(CN5CCOCC5)c4)C[C@@H]3C2)CC1 [Example 10b] and CN1CCN(CCCN(c2nc3cc(F)c(F)cc3[nH]2)[C@@H]2CC[C@]3(c4cccc(CN5CCOCC5)c4)C[C@@H]3C2)CC1 [Example 10e] fall in the same range of Ki: 10 to 30 nM for the first, 10 to 30 nM for the second.

First: CN1CCN(CCCN(c2nc3cc(F)c(F)cc3[nH]2)[C@@H]2CC[C@]3(c4cccc(CN5CCCC5)c4)C[C@@H]3C2)CC1 [Example 10c]
Second: CN1CCN(CCCN(c2nc3cc(F)c(F)cc3[nH]2)[C@@H]2CC[C@]3(c4cccc(CN5CC[C@@H](O)C5)c4)CC3C2)CC1 (some centres unmarked) [Example 10f]
The Ki of the first is lower: 10 to 30 nM for the first, greater than 100 nM for the second. The first binds more tightly here.

CS(=O)(=O)N1CCC(CN(c2nc3cc(Cl)c(Cl)cc3[nH]2)[C@@H]2CC[C@]3(c4cccc(C#N)c4)C[C@@H]3C2)CC1 [Example 16a] and CS(=O)(=O)N1CCC(CN(c2nc3cc(F)c(Cl)cc3[nH]2)[C@@H]2CC[C@]3(c4cccc(C#N)c4)C[C@@H]3C2)CC1 [Example 16c] cannot be ordered by Ki: less than 10 nM for the first, less than 10 nM for the second.

Compared with CS(=O)(=O)N1CCC(CN(c2nc3cc(F)c(F)cc3[nH]2)[C@@H]2CC[C@]3(c4cccc(C#N)c4)C[C@@H]3C2)CC1 [Example 16b], CC(C)(C)OC(=O)N1CCC(CN(c2nc3cc(Cl)c(Cl)cc3[nH]2)[C@@H]2CC[C@]3(c4cccc(C#N)c4)CC3C2)CC1 (some centres unmarked) [Example 21] is higher in Ki: 10 to 30 nM for the first, greater than 100 nM for the second. The first binds more tightly here.

N#Cc1cccc([C@]23CC[C@@H](N(CC4CCNCC4)c4nc5cc(Cl)c(Cl)cc5[nH]4)CC2C3)c1 (some centres unmarked) [Example 22] and CN1CCN(CCCN(c2nc3cc(Cl)c(Cl)cc3[nH]2)[C@@H]2CC[C@]3(c4cccc(C#N)c4)C[C@H]23)CC1 [Example 30a] cannot be ordered by Ki: less than 10 nM for the first, less than 10 nM for the second.

CO/N=C/c1cccc([C@]23CC[C@@H](N(CCCN4CCN(C)CC4)c4nc5cc(F)c(F)cc5[nH]4)CC2C3)c1 (some centres unmarked) [Example 24] and CN1CCN(CCCN(c2nc3cc(F)c(F)cc3[nH]2)[C@@H]2CC[C@]3(c4cccc(C#N)c4)C[C@H]23)CC1 [Example 30c] fall in the same range of Ki: 10 to 30 nM for the first, 10 to 30 nM for the second.

First: CN1CCN(CCCN(c2nc3cc(F)c(Cl)cc3[nH]2)[C@@H]2CC[C@]3(c4cccc(Br)c4)CC23)CC1 (some centres unmarked) [Example 30d]
Second: CN1CCN(CCCN(c2nc3cc(Cl)c(F)cc3[nH]2)[C@@H]2CC[C@]3(c4ccc(C#N)cc4)C[C@H]23)CC1 [Example 35c]
The Ki of the first is higher: 10 to 30 nM for the first, less than 10 nM for the second. The second binds more tightly here.

Compared with CN1CCN(CCCN(c2nc3cc(F)c(C(F)(F)F)cc3[nH]2)[C@@H]2CC[C@]3(c4ccc(C#N)cc4)CC23)CC1 (some centres unmarked) [Example 35a], CN1CCN(CCCN(c2nc3cc(Cl)c(Cl)cc3[nH]2)[C@@H]2CC[C@]3(c4ccc(C#N)cc4)C[C@H]23)CC1 [Example 35b] is higher in Ki: less than 10 nM for the first, 10 to 30 nM for the second. The first binds more tightly here.

CN1CCN(CCCN(c2nc3cc(F)c(Cl)cc3n2C)[C@@H]2CC[C@]3(c4cccc(C#N)c4)CC23)CC1 (some centres unmarked) [Example 36] showed a Ki greater than 100 nM.
